Data reported in the supplement of paper PMC10307832.

Columns and labels:
Assay in all cases: relative viability (nuclei count vs DMSO), 5 days (fraction); higher = more cells survive
[1] = compound: CC1=NN=C(O1)C2=NN=C(C=C2)N3CCC(CC3)OC4=C(C=CC(=C4)F)Cl + O=C(c1cc(Cc2n[nH]c(=O)c3ccccc23)ccc1F)N1CCN(C(=O)C2CC2)CC1 [Olaparib] (partner 8 µM)
How it was run: (§1)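 A single step with final 0.05% Triton X-100, 1% formaldehyde and 1 ug/ml Hoechst fixed the cells and stained nuclei 5 days after treatment. Lung cancer cell lines in 1536-well plates had been treated by pin tool the day after seeding with one drug alone or a fixed anchor-drug dose plus five library-drug doses (not always all listed) in √10 steps, and nuclei were counted on 4× images. Relative viability is the ratio of nuclei in treated wells to nuclei in vehicle wells, taken as the median of duplicate plates.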

Tosedostat + Linsitinib = compound: CC(C)C[C@@H](C(=O)N[C@H](C(=O)OC1CCCC1)c1ccccc1)[C@H](O)C(=O)NO [Tosedostat] + C[C@]1(O)C[C@@H](c2nc(-c3ccc4ccc(-c5ccccc5)nc4c3)c3c(N)nccn32)C1 [Linsitinib] (partner 1 µM)
How it was run: as §1

[2] = compound: CC1=NN=C(O1)C2=NN=C(C=C2)N3CCC(CC3)OC4=C(C=CC(=C4)F)Cl + C[C@@H](Oc1cc(-c2cnn(C3CCNCC3)c2)cnc1N)c1c(Cl)ccc(F)c1Cl [Crizotinib] (partner 1 µM)
How it was run: as §1

[3] = compound: CC1=NN=C(O1)C2=NN=C(C=C2)N3CCC(CC3)OC4=C(C=CC(=C4)F)Cl + Nc1nc2[nH]cc(CCc3ccc(C(=O)N[C@@H](CCC(=O)O)C(=O)O)cc3)c2c(=O)[nH]1 [Pemetrexed] (partner 0.2 µM)
How it was run: as §1

Cell Line: EBC-1
- relative viability ([1]; first compound 0.253 µM): 0.485
- relative viability ([1]; first compound 0.8 µM): 0.538
- relative viability ([1]; first compound 2.53 µM): 0.509
- relative viability ([1]; first compound 8 µM): 0.438
- relative viability (Tosedostat + Linsitinib; first compound 0.02 µM): 0.843
- relative viability (Tosedostat + Linsitinib; first compound 0.06325 µM): 0.808
- relative viability (Tosedostat + Linsitinib; first compound 0.2 µM): 0.977
- relative viability (Tosedostat + Linsitinib; first compound 0.6325 µM): 0.581
- relative viability (Tosedostat + Linsitinib; first compound 2 µM): 0.585
- relative viability ([2]; first compound 0.253 µM): 0.216
- relative viability ([2]; first compound 0.8 µM): 0.171
- relative viability ([2]; first compound 2.53 µM): 0.179
- relative viability ([2]; first compound 8 µM): 0.202

Cell Line: NCI-H596
- relative viability ([3]; first compound 0.253 µM): 0.52
- relative viability ([3]; first compound 0.8 µM): 0.494
- relative viability ([3]; first compound 2.53 µM): 0.476
- relative viability ([3]; first compound 8 µM): 0.394
- relative viability ([1]; first compound 0.253 µM): 0.541
- relative viability ([1]; first compound 0.8 µM): 0.732
- relative viability ([1]; first compound 2.53 µM): 0.752
- relative viability ([1]; first compound 8 µM): 0.615
- relative viability (Tosedostat + Linsitinib; first compound 0.02 µM): 1.21
- relative viability (Tosedostat + Linsitinib; first compound 0.06325 µM): 1.07
- relative viability (Tosedostat + Linsitinib; first compound 0.2 µM): 1.22
- relative viability (Tosedostat + Linsitinib; first compound 0.6325 µM): 1.05
- relative viability (Tosedostat + Linsitinib; first compound 2 µM): 1.06
- relative viability ([2]; first compound 0.8 µM): 0.95
- relative viability ([2]; first compound 2.53 µM): 0.963
- relative viability ([2]; first compound 8 µM): 0.795

Cell Line: A-427
- relative viability ([3]; first compound 0.253 µM): 1.03
- relative viability ([3]; first compound 0.8 µM): 0.792
- relative viability ([3]; first compound 2.53 µM): 0.922
- relative viability ([3]; first compound 8 µM): 0.947
- relative viability ([1]; first compound 0.253 µM): 0.527
- relative viability ([1]; first compound 0.8 µM): 0.634
- relative viability ([1]; first compound 2.53 µM): 0.744
- relative viability ([1]; first compound 8 µM): 0.669
- relative viability (Tosedostat + Linsitinib; first compound 0.02 µM): 1.14
- relative viability (Tosedostat + Linsitinib; first compound 0.06325 µM): 1.12
- relative viability (Tosedostat + Linsitinib; first compound 0.2 µM): 1.03
- relative viability (Tosedostat + Linsitinib; first compound 0.6325 µM): 1.07
- relative viability (Tosedostat + Linsitinib; first compound 2 µM): 1.09
- relative viability ([2]; first compound 0.253 µM): 0.826
- relative viability ([2]; first compound 2.53 µM): 0.779
- relative viability ([2]; first compound 8 µM): 0.671

Cell Line: NCI-H441
- relative viability ([3]; first compound 0.253 µM): 0.295
- relative viability ([3]; first compound 0.8 µM): 0.265
- relative viability ([3]; first compound 2.53 µM): 0.223
- relative viability ([3]; first compound 8 µM): 0.258
- relative viability ([1]; first compound 0.253 µM): 0.355
- relative viability ([1]; first compound 0.8 µM): 0.353
- relative viability ([1]; first compound 2.53 µM): 0.349
- relative viability ([1]; first compound 8 µM): 0.383
- relative viability (Tosedostat + Linsitinib; first compound 0.02 µM): 0.487
- relative viability (Tosedostat + Linsitinib; first compound 0.06325 µM): 0.544
- relative viability (Tosedostat + Linsitinib; first compound 0.2 µM): 0.473
- relative viability (Tosedostat + Linsitinib; first compound 0.6325 µM): 0.402
- relative viability (Tosedostat + Linsitinib; first compound 2 µM): 0.403
- relative viability ([2]; first compound 0.253 µM): 0.615
- relative viability ([2]; first compound 0.8 µM): 0.428
- relative viability ([2]; first compound 2.53 µM): 0.541
- relative viability ([2]; first compound 8 µM): 0.36

Cell Line: NCI-H1563
- relative viability ([3]; first compound 0.253 µM): 0.735
- relative viability ([3]; first compound 0.8 µM): 0.878
- relative viability ([3]; first compound 2.53 µM): 0.825
- relative viability ([3]; first compound 8 µM): 0.648
- relative viability (Tosedostat + Linsitinib; first compound 0.02 µM): 1.25
- relative viability (Tosedostat + Linsitinib; first compound 0.06325 µM): 1.16
- relative viability (Tosedostat + Linsitinib; first compound 0.2 µM): 1.26
- relative viability (Tosedostat + Linsitinib; first compound 0.6325 µM): 1.29
- relative viability (Tosedostat + Linsitinib; first compound 2 µM): 1.4
- relative viability ([2]; first compound 0.253 µM): 0.861
- relative viability ([2]; first compound 0.8 µM): 0.858
- relative viability ([2]; first compound 2.53 µM): 0.837
- relative viability ([2]; first compound 8 µM): 0.868

Cell Line: NCI-H358
- relative viability ([3]; first compound 0.253 µM): 0.148
- relative viability ([3]; first compound 0.8 µM): 0.167
- relative viability ([3]; first compound 2.53 µM): 0.139
- relative viability ([3]; first compound 8 µM): 0.162
- relative viability ([1]; first compound 0.253 µM): 0.296
- relative viability ([1]; first compound 0.8 µM): 0.275
- relative viability ([1]; first compound 2.53 µM): 0.321
- relative viability ([1]; first compound 8 µM): 0.26
- relative viability (Tosedostat + Linsitinib; first compound 0.02 µM): 0.944
- relative viability (Tosedostat + Linsitinib; first compound 0.06325 µM): 0.788
- relative viability (Tosedostat + Linsitinib; first compound 0.2 µM): 0.544
- relative viability (Tosedostat + Linsitinib; first compound 0.6325 µM): 0.548
- relative viability (Tosedostat + Linsitinib; first compound 2 µM): 0.507
- relative viability ([2]; first compound 0.253 µM): 0.522
- relative viability ([2]; first compound 0.8 µM): 0.403
- relative viability ([2]; first compound 2.53 µM): 0.509
- relative viability ([2]; first compound 8 µM): 0.466

Cell Line: LOU-NH91
- relative viability ([3]; first compound 0.8 µM): 0.386
- relative viability ([3]; first compound 2.53 µM): 0.394
- relative viability ([3]; first compound 8 µM): 0.424
- relative viability ([1]; first compound 0.8 µM): 0.818
- relative viability ([1]; first compound 2.53 µM): 0.879
- relative viability ([1]; first compound 8 µM): 0.883
- relative viability (Tosedostat + Linsitinib; first compound 0.02 µM): 0.961
- relative viability (Tosedostat + Linsitinib; first compound 0.06325 µM): 0.932
- relative viability (Tosedostat + Linsitinib; first compound 0.2 µM): 0.991
- relative viability (Tosedostat + Linsitinib; first compound 0.6325 µM): 0.973
- relative viability (Tosedostat + Linsitinib; first compound 2 µM): 0.938
- relative viability ([2]; first compound 0.8 µM): 0.654
- relative viability ([2]; first compound 2.53 µM): 0.703
- relative viability ([2]; first compound 8 µM): 0.749

Cell Line: NCI-H3122
- relative viability ([3]; first compound 0.253 µM): 0.138
- relative viability ([3]; first compound 0.8 µM): 0.142
- relative viability ([3]; first compound 2.53 µM): 0.16
- relative viability ([3]; first compound 8 µM): 0.143
- relative viability ([1]; first compound 0.253 µM): 0.283
- relative viability ([1]; first compound 0.8 µM): 0.273
- relative viability ([1]; first compound 2.53 µM): 0.336
- relative viability ([1]; first compound 8 µM): 0.293
- relative viability (Tosedostat + Linsitinib; first compound 0.02 µM): 0.993
- relative viability (Tosedostat + Linsitinib; first compound 0.06325 µM): 1
- relative viability (Tosedostat + Linsitinib; first compound 0.2 µM): 1.01
- relative viability (Tosedostat + Linsitinib; first compound 0.6325 µM): 1.02
- relative viability (Tosedostat + Linsitinib; first compound 2 µM): 1.04
- relative viability ([2]; first compound 0.253 µM): 0.3
- relative viability ([2]; first compound 0.8 µM): 0.303
- relative viability ([2]; first compound 2.53 µM): 0.318
- relative viability ([2]; first compound 8 µM): 0.359
